In ChEMBL document CHEMBL5143624, “WCK 1152, WCK 1153: Discovery and structure activity relationship for the treatment of resistant pneumococcal and staphylococcal respiratory infections” (Bioorg Med Chem Lett, 2022):
≈ marks a conversion by molar mass, not a printed value.

Tests used:
Streptococcus pneumoniae [1] = experiment: Antibacterial activity against Streptococcus pneumoniae assessed as inhibition of bacterial growth incubated for 18 hrs by CLSI based serial agar dilution method; assay type: functional; details: Streptococcus pneumoniae, 18 h, read-out: MIC
Staphylococcus aureus [2] = experiment: Antibacterial activity against methicillin resistant Staphylococcus aureus assessed as inhibition of bacterial growth incubated for 18 hrs by CLSI based serial agar dilution method; assay type: functional; details: Staphylococcus aureus, read-out: MIC
Streptococcus pneumoniae [3] = experiment: Antibacterial activity against fluoroquinolone efflux positive Streptococcus pneumoniae 706 assessed as inhibition of bacterial growth incubated for 18 hrs by CLSI based serial agar dilution method; assay type: functional
Streptococcus pneumoniae [4] = experiment: Antibacterial activity against Streptococcus pneumoniae 5844 harbouring moxifloxacin resistant DNA gyrase and topoisomerase IV mutant assessed as inhibition of bacterial growth incubated for 18 hrs by CLSI based serial agar dilution method; assay type: functional; details: Streptococcus pneumoniae, 5844, 18 h
Staphylococcus aureus [5] = experiment: Antibacterial activity against methicillin resistant Staphylococcus aureus 032 assessed as inhibition of bacterial growth incubated for 18 hrs by CLSI based serial agar dilution method; assay type: functional
Staphylococcus aureus [6] = experiment: Antibacterial activity against methicillin resistant Staphylococcus aureus 5076 harbouring DNA gyrase and topoisomerase IV mutant and efflux pump assessed as inhibition of bacterial growth incubated for 18 hrs in presence of efflux inhibitor by CLSI based serial agar dilution method; assay type: functional
Streptococcus pneumoniae [7] = experiment: Antibacterial activity against beta-lactams, macrolide and fluoroquinolone resistant Streptococcus pneumoniae 718 infected in po dosed Swiss mouse septicemia model assessed as protective dose administered on 1 and 5 hrs post infection and measured on day 7; assay type: functional, organism-based
Staphylococcus aureus [8] = experiment: Antibacterial activity against Staphylococcus aureus […] assessed as inhibition of bacterial growth incubated for 18 hrs by CLSI based serial agar dilution method; assay type: functional

Q: Which results are given for `CC1(C)CN(c2c(F)cc3c(=O)c(C(=O)O)cn(C4CC4)c3c2F)CCC1N` (configuration not stated)?
A: MIC (Streptococcus pneumoniae [1]): 0.4 mg/L (≈ 1.02 µM); MIC (Staphylococcus aureus [2]): 3.12 mg/L (≈ 7.97 µM)

Q: How did the MIC (Streptococcus pneumoniae [1]) turn out when `CCC1CN(c2c(F)cc3c(=O)c(C(=O)O)cn(C4CC4)c3c2OC)CCC1N` (configuration not stated) was run?
A: The MIC was 0.8 mg/L (≈ 1.98 µM).

Q: And the MIC (Staphylococcus aureus [2])?
A: The MIC was 0.1 mg/L (≈ 0.248 µM).

Q: With `COc1c(N2CC(C)C(N)C(C)(C)C2)c(F)cc2c(=O)c(C(=O)O)cn(C3CC3)c12` (configuration not stated) as the compound, how does the MIC (Streptococcus pneumoniae [1]) read?
A: Its MIC is 0.2 mg/L (≈ 0.479 µM).

Q: What about the MIC (Staphylococcus aureus [2]) of the same compound?
A: The MIC was 0.1 mg/L (≈ 0.24 µM).

Q: `CCNC1CCN(c2c(F)cc3c(=O)c(C(=O)O)cn(C4CC4)c3c2OC)CC1C` (configuration not stated) was tested. Which MIC (Streptococcus pneumoniae [1]) did it give?
A: Its MIC is 1.56 mg/L (≈ 3.74 µM).

Q: And the MIC (Staphylococcus aureus [2])?
A: Its MIC is 0.4 mg/L (≈ 0.958 µM).

Q: Which MIC (Streptococcus pneumoniae [1]) does the source give for `COc1c(N2CCC(N)C(C)(C)C2)c(F)c(N)c2c(=O)c(C(=O)O)cn(C3CC3)c12` (configuration not stated) here?
A: The MIC was 0.2 mg/L (≈ 0.478 µM).

Q: And the MIC (Staphylococcus aureus [2])?
A: Its MIC is 3.12 mg/L (≈ 7.46 µM).

Q: For `CC1(C)CN(c2ccc3c(=O)c(C(=O)O)cn(-c4ccc(F)cc4F)c3n2)CCC1N` (configuration not stated), which MIC (Streptococcus pneumoniae [1]) is on record?
A: Its MIC is 1.56 mg/L (≈ 3.64 µM).

Q: And the MIC (Staphylococcus aureus [2])?
A: The MIC was > 12.5 mg/L.

Q: With `CNC1CCN(c2c(F)cc3c(=O)c(C(=O)O)cn(C4CC4)c3c2OC)CC1(C)C` (configuration not stated) as the compound, how does the MIC (Streptococcus pneumoniae [1]) read?
A: The MIC was 1.56 mg/L (≈ 3.74 µM).

Q: What about the MIC (Streptococcus pneumoniae [3]) of the same compound?
A: The MIC was 1.56 mg/L (≈ 3.74 µM).

Q: And the MIC (Staphylococcus aureus [2])?
A: The MIC was 0.2 mg/L (≈ 0.479 µM).

Q: Which results are given for `Cc1c(F)c(N2CCC(N)C(C)(C)C2)cc2c1c(=O)c(C(=O)O)cn2C1CC1` (configuration not stated)?
A: MIC (Streptococcus pneumoniae [1]): 0.8 mg/L (≈ 2.06 µM); MIC (Staphylococcus aureus [2]): > 12.5 mg/L

Q: Which results are given for `CCC1(C)CN(c2c(F)cc3c(=O)c(C(=O)O)cn(C4CC4)c3c2OC)CCC1NC` (configuration not stated)?
A: MIC (Streptococcus pneumoniae [4]): 6.25 mg/L (≈ 14.5 µM); MIC (Streptococcus pneumoniae [3]): 1.56 mg/L (≈ 3.62 µM)

Q: Which results are given for `COc1c(N2CC[C@@H](N)C(C)(C)C2)c(F)c(N)c2c(=O)c(C(=O)O)cn(C3CC3)c12`?
A: MIC (Streptococcus pneumoniae [1]): 6.25 mg/L (≈ 14.9 µM); MIC (Staphylococcus aureus [2]): > 12.5 mg/L

Q: How did the MIC (Streptococcus pneumoniae [1]) turn out when `COc1c(N2CCC(NC3CC3)C(C)C2)c(F)cc2c(=O)c(C(=O)O)cn(C3CC3)c12` (configuration not stated) was run?
A: Its MIC is 1.56 mg/L (≈ 3.63 µM).

Q: And the MIC (Staphylococcus aureus [2])?
A: Its MIC is 0.4 mg/L (≈ 0.931 µM).

Q: What does the source list for `Cc1c(F)c(N2CCC(N)C(C)(C)C2)nc2c1c(=O)c(C(=O)O)cn2-c1ccc(F)cc1F` (configuration not stated)?
A: MIC (Streptococcus pneumoniae [1]): 1.56 mg/L (≈ 3.39 µM); MIC (Staphylococcus aureus [2]): > 12.5 mg/L

Q: Which results are given for `CNC1C(C)CN(c2c(F)cc3c(=O)c(C(=O)O)cn(C4CC4)c3c2OC)CC1C` (configuration not stated)?
A: MIC (Streptococcus pneumoniae [1]): 0.4 mg/L (≈ 0.958 µM); MIC (Staphylococcus aureus [2]): 0.1 mg/L (≈ 0.24 µM)

Q: How did the MIC (Staphylococcus aureus [5]) turn out when `Cc1c(N2CCC(N)C(C)C2)c(F)cc2c(=O)c(C(=O)O)cn(C3CC3)c12.Cl` (configuration not stated) was run?
A: Its MIC is 1.56 mg/L.

Q: Which results are given for `CCC1(C)CN(c2c(F)cc3c(=O)c(C(=O)O)cn(C4CC4)c3c2OC)CCC1NC1CC1` (configuration not stated)?
A: MIC (Streptococcus pneumoniae [4]): > 6.25 mg/L; MIC (Streptococcus pneumoniae [3]): 0.4 mg/L (≈ 0.874 µM)

Q: Which results are given for `COc1c(N2CC[C@@H](N)C(C)(C)C2)c(F)cc2c(=O)c(C(=O)O)cn(C3CC3)c12`?
A: MIC (Staphylococcus aureus [6]): 1.56 mg/L; MIC (Staphylococcus aureus [5]; Staphylococcus aureus, 032, 18 h, read-out: MIC): 0.8 mg/L (≈ 1.98 µM); EC50 (Streptococcus pneumoniae [7]): 20 mg/kg; MIC (Staphylococcus aureus [2]): 0.05 mg/L (≈ 0.124 µM); MIC (Staphylococcus aureus [8]): 0.05 mg/L (≈ 0.124 µM)

Q: Which MIC (Streptococcus pneumoniae [1]) does the source give for `COc1c(N2CC(C)C(N(C)C)C(C)C2)c(F)cc2c(=O)c(C(=O)O)cn(C3CC3)c12` (configuration not stated) here?
A: The MIC was 0.2 mg/L (≈ 0.463 µM).

Q: And the MIC (Streptococcus pneumoniae [3])?
A: The MIC was 0.2 mg/L (≈ 0.463 µM).

Q: And the MIC (Staphylococcus aureus [2])?
A: Its MIC is 0.1 mg/L (≈ 0.232 µM).

Q: With `CCN(CC)C1CCN(c2c(F)cc3c(=O)c(C(=O)O)cn(C4CC4)c3c2OC)CC1` as the compound, how does the MIC (Streptococcus pneumoniae [1]) read?
A: The MIC was 0.8 mg/L (≈ 1.85 µM).

Q: And the MIC (Staphylococcus aureus [2])?
A: The MIC was 0.2 mg/L (≈ 0.463 µM).

Q: With `CCn1cc(C(=O)O)c(=O)c2cc(F)c(N3CCC(N)C(C)(C)C3)c(OC)c21` (configuration not stated) as the compound, how does the MIC (Streptococcus pneumoniae [1]) read?
A: The MIC was 1.56 mg/L (≈ 3.99 µM).

Q: What about the MIC (Staphylococcus aureus [2]) of the same compound?
A: The MIC was 6.25 mg/L (≈ 16 µM).

Q: With `COc1c(N2CCC(NC(C)=O)C(C)(C)C2)c(F)cc2c(=O)c(C(=O)O)cn(C3CC3)c12` (configuration not stated) as the compound, how does the MIC (Streptococcus pneumoniae [1]) read?
A: Its MIC is 1.56 mg/L (≈ 3.5 µM).

Q: What about the MIC (Staphylococcus aureus [2]) of the same compound?
A: Its MIC is 0.4 mg/L (≈ 0.898 µM).

Q: How did the MIC (Streptococcus pneumoniae [4]) turn out when `CCC1(CC)CN(c2c(F)cc3c(=O)c(C(=O)O)cn(C4CC4)c3c2OC)CCC1N` (configuration not stated) was run?
A: Its MIC is 6.25 mg/L (≈ 14.5 µM).

Q: And the MIC (Streptococcus pneumoniae [3])?
A: The MIC was < 0.4 mg/L.

Q: With `Cc1c(F)c(N2CCC(N)C(C)(C)C2)c(F)c2c1c(=O)c(C(=O)O)cn2C1CC1` (configuration not stated) as the compound, how does the MIC (Streptococcus pneumoniae [1]) read?
A: The MIC was 0.1 mg/L (≈ 0.247 µM).

Q: And the MIC (Staphylococcus aureus [2])?
A: The MIC was 3.12 mg/L (≈ 7.7 µM).

Q: How did the MIC (Streptococcus pneumoniae [1]) turn out when `CC1(C)CN(c2nc3c(cc2F)c(=O)c(C(=O)O)cn3C2CC2)CCC1N` (configuration not stated) was run?
A: The MIC was 3.12 mg/L (≈ 8.33 µM).

Q: And the MIC (Staphylococcus aureus [2])?
A: Its MIC is > 12.5 mg/L.

Q: Which MIC (Streptococcus pneumoniae [1]) does the source give for `COc1c(N2CCC(NC3CC3)C(C)(C)C2)c(F)cc2c(=O)c(C(=O)O)cn(C3CC3)c12` (configuration not stated) here?
A: The MIC was 0.8 mg/L (≈ 1.8 µM).

Q: And the MIC (Streptococcus pneumoniae [3])?
A: Its MIC is 0.8 mg/L (≈ 1.8 µM).

Q: And the MIC (Staphylococcus aureus [2])?
A: The MIC was 0.2 mg/L (≈ 0.451 µM).

Q: What does the source list for `COc1c(N2CCC(N)C(C)(C)C2)c(F)c(N)c2c(=O)c(C(=O)O)cn(-c3ccc(F)cc3F)c12` (configuration not stated)?
A: MIC (Streptococcus pneumoniae [1]): 3.12 mg/L (≈ 6.36 µM); MIC (Staphylococcus aureus [2]): 12.5 mg/L (≈ 25.5 µM)

Q: With `CC1(C)CN(c2c(F)c(N)c3c(=O)c(C(=O)O)cn(C4CC4)c3c2F)CCC1N` (configuration not stated) as the compound, how does the MIC (Streptococcus pneumoniae [1]) read?
A: Its MIC is 0.1 mg/L (≈ 0.246 µM).

Q: And the MIC (Staphylococcus aureus [2])?
A: Its MIC is 3.12 mg/L (≈ 7.68 µM).

Q: Which MIC (Streptococcus pneumoniae [1]) does the source give for `CCC1(C)CN(c2c(F)cc3c(=O)c(C(=O)O)cn(C4CC4)c3c2OC)CCC1N` (configuration not stated) here?
A: The MIC was 0.2 mg/L (≈ 0.479 µM).

Q: And the MIC (Streptococcus pneumoniae [4])?
A: Its MIC is 2.5 mg/L (≈ 5.99 µM).

Q: And the MIC (Staphylococcus aureus [2])?
A: The MIC was 0.1 mg/L (≈ 0.24 µM).

Q: Which results are given for `CNC1CCN(c2c(F)cc3c(=O)c(C(=O)O)cn(C4CC4)c3c2OC)CC1C` (configuration not stated)?
A: MIC (Streptococcus pneumoniae [1]): 1.56 mg/L (≈ 3.87 µM); MIC (Staphylococcus aureus [2]): 0.2 mg/L (≈ 0.496 µM)
